This note sets out measurements from patent US9745255B2, “Meta-substituted biphenyl peripherally restricted FAAH inhibitors” (The Regents of the University of California, priority 2011, dated 2017).

Like-named read-outs stand apart in the source and are kept apart here.

For data set [1], the system named is rodent models of inflammation and peripheral nerve injury. Nature of the data set: Rodent models of inflammation and peripheral nerve injury (persistent pain). It counts as in vivo. As to conditions: prevented by CB1 receptor blockade. An excerpt: (§1) Peripheral cannabinoid receptors exert a powerful inhibitory control over pain initiation, but the endogenous cannabinoid signal that normally engages this intrinsic analgesic mechanism is unknown. […] CB1 receptor blockade prevents these effects. […] Accordingly, relatively brain-impermeant FAAH inhibitors, which strengthen this gating mechanism, offer a new approach to pain therapy (see, U.S. Provisional Patent Application Ser. No. 61/368,500, filed on Jul. 28, 2010, which is incorporated herein by reference in its entirety for all purposes, and specifically with respect to methods of assaying FAAH inhibitors for their biological and pharmaceutical properties, and the pharmacological properties of peripherally restricted FAAH inhibitors in general).

Data set [2] is described as follows: Transport system mediated extrusion from brain. To be noted: in vivo.
Source text: as §1

Data set [3] deals with T1, FAAH (Mus musculus, UniProt O08914).
T1 sequence (O08914 1-579): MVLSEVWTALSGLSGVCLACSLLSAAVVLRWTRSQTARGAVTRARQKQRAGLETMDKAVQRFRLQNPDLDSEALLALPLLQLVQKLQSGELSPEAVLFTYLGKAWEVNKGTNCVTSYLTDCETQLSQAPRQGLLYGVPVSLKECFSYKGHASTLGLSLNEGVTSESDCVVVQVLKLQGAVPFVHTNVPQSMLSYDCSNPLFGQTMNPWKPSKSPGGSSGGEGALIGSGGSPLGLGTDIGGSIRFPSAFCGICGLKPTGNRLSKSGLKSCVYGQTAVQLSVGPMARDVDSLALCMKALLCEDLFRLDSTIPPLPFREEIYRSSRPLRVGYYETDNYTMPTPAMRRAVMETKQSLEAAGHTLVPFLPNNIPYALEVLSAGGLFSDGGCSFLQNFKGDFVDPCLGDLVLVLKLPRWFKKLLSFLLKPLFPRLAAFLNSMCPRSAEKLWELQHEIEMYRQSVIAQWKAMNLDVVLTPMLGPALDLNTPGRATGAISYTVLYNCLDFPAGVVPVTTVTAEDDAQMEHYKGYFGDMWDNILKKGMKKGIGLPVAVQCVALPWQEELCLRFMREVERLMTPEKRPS
In words: FAAH activity and anandamide levels outside the CNS. As to conditions: in vivo. Details: suppressed FAAH activity and increased anandamide levels outside the central nervous system (CNS); from tissue; host or cells: peripheral tissues of the dosed animal, not specified. The text has this: Peripheral cannabinoid receptors exert a powerful inhibitory control over pain initiation, but the endogenous cannabinoid signal that normally engages this intrinsic analgesic mechanism is unknown.

Data set [4] deals with carrageenan-induced hyperalgesia in male CD1 mice. Nature of the data set: Carrageenan-induced thermal hyperalgesia. The format is in vivo, mouse. To be noted: oral administration, p<0.001 vs. vehicle (FIG. 3). The protocol:
(§2) Peripheral inflammation was induced by intraplantar (i.pl.) injection of the polysaccharide λ-carrageenan (i.pl. 1% weight vol^−1 in sterile water, 20 μL) into the left hind paw of male CD1 mice.
(§3) Nocifensive responses were measured elicited by intraplantar injection of carrageenan in male CD1 mice (LoVerme, J., La Rana, G., Russo, R., Calignano, A., & Piomelli, D., The search for the palmitoylethanolamide receptor. Life Sci 77 (14), 1685-1698 (2005)).
(§4) Mechanical hyperalgesia was determined by measuring the latency in seconds to withdraw the paw away from a constant mechanical pressure exerted onto the dorsal surface. […] Withdrawal threshold was measured on the inflamed ipsilateral paw at different time points after oral drug administration. […] Thermal hyperalgesia was assessed as described (Hargreaves, K., Dubner, R., Brown, F., Flores, C., & Joris, J., A new and sensitive method for measuring thermal nociception in cutaneous hyperalgesia. Pain 32 (1), 77-88 (1988)), measuring the latency to withdraw the hindpaw from a focused beam of radiant heat (thermal intensity: infrared 3.0) applied to the plantar surface using a plantar test apparatus (Ugo Basile, Italy). […] Withdrawal latency was measured on the inflamed ipsilateral paw at different time points after oral drug administration. […]

Data set [5] shares this test system. In words: Carrageenan-induced mechanical hyperalgesia. It counts as in vivo, mouse. As to conditions: oral administration, p<0.001 vs. vehicle (FIG. 2). How it is done: as §2, §3, §4
Data set [6] has as its target T1, FAAH. In words: Ex vivo FAAH activity in liver and brain tissue extracts after i.p. administration to mice. More on the design: from tissue; host or cells: mouse liver and brain, membrane fraction of tissue extracts. As to conditions: for inhibition at 1 mg/kg: mouse, ip, Table 1, mice, 1 mg/kg intraperitoneal, killed 2 h after administration, ex vivo. How it is done: (§5) Comparison of compounds according to the invention with other peripherally restricted FAAH inhibitors for their ability to inhibit FAAH in the periphery. […] In particular, (1) IC50 values were generated in vitro using a FAAH assay. […] Mice received a 1 mg/kg dose of each compound by the intraperitoneal route, and were killed 2 h after administration. Tissues were collected and FAAH activity was measured ex vivo in tissue extracts (membrane fraction) using the FAAH assay.

The subject of data set [7] is carrageenan-induced edema in male CD1 mice. In words: Carrageenan-induced paw edema. The format is in vivo, mouse. To be noted: oral administration, 10 and 30 mg/kg, vs. vehicle (FIG. 1). How it is done: as §2
Paw edema was induced in mice by injection into the right hind paws of 50 μL, of sterile saline containing 1% λ-carrageenan. Paw volumes were measured using a plethysmometer (Ugo Basile, Milan, Italy). […] The increase in paw volume (mL) was evaluated as the difference between the paw volume measured at each time point and the basal paw volume measured immediately before carrageenan injection.

A short description of data set [8]: Brain entry after systemic administration in mice. It counts as in vivo, mouse. To be noted: inferred from Table 3. An excerpt:
The activity of compounds of Formula I as peripherally restricted FAAH inhibitors was found based in part on the polarity of the p-hydroxyphenyl moiety.

Data set [9] has as its target T2, FAAH (Rattus norvegicus, UniProt P97612).
T2 construct: Wistar rats were typically used for the FAAH studies; from tissue; host or cells: Wistar rat
T2 sequence (P97612 1-579): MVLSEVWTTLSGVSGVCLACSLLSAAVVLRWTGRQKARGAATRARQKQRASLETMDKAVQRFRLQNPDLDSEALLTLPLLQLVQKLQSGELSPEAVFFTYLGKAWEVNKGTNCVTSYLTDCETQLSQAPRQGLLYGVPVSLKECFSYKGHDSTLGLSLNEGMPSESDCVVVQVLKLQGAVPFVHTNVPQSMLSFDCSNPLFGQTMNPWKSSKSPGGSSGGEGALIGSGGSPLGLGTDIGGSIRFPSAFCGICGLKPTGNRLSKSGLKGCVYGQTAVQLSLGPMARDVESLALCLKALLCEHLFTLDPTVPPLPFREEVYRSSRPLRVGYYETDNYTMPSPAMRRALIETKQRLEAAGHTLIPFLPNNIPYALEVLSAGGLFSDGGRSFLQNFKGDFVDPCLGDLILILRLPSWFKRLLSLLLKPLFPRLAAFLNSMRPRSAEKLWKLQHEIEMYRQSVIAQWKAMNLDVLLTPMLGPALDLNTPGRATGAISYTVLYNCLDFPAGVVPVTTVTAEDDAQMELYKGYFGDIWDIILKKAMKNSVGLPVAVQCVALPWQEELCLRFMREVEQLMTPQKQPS
Nature of the data set: In vitro FAAH assay (IC50, Tables 1 and 2). The format is biochemical. How it is done: Male Swiss Webster and CD1 mice (Charles River, 20-30 g) were used. Mice were group-housed in standard cages at room temperature on a 12:12 h light:dark cycle with unlimited access to water and standard chow pellets. Wistar rats were typically used for the FAAH studies. All experiments met the National Institutes of Health guidelines for the care and use of laboratory animals, were approved by the Institutional Animal Care and Use Committee of the University of California, Irvine, and the University of Georgia, Athens, and were in compliance with the European Community Council Directive 86 (609) EEC and the experimental protocol was carried out in compliance with Italian regulations (DL 116/92).
as §5

[10] abbreviates: brain membrane fraction, read-out: FAAH inhibition in brain.
Setting [11] is: liver membrane fraction, read-out: FAAH inhibition in liver.

In the case of `NC(=O)c1cccc(-c2cc(OC(=O)NC3CCCCC3)ccc2O)c1` [URB937], the “noxious stimulus-evoked neuronal activation in spinal cord regions implicated in nociceptive processing” value in [1] was “suppresses”. For the same compound, in [1] (rodent models of inflammation and peripheral nerve injury), the “behavioral responses indicative of persistent pain” value was “attenuated”. For the same compound, in [2], the “susceptibility to transport system mediated extrusion from brain” value is “surprisingly susceptible”. Further, on FAAH [3], the “FAAH activity outside the central nervous system (CNS)” value is “suppressed” and the “anandamide levels outside the central nervous system (CNS)” value is given as “increased”.
A word on the inhibition: it is the relative decrease from the control value, in per cent. On to `NC(=O)c1cccc(-c2cc(O)cc(OC(=O)NC3CCCCC3)c2)c1` [Compound 1, [3-(3-carbamoylphenyl)-5-hydroxy-phenyl]N-cyclohexylcarbamate], for which the “withdrawal threshold on inflamed ipsilateral paw, thermal hyperalgesia test” value in data set [4] was “increased”. The “withdrawal threshold on inflamed ipsilateral paw, mechanical hyperalgesia test” value in data set [5] is listed as “increased”. Also, the inhibition at 1 mg/kg on FAAH [6] (setting [10]) is -4.2 ± 2.5%; on FAAH [6] (setting [11]) it was 89.5 ± 1.1%. Also, in data set [7], the “difference between paw volume at each time point and basal paw volume (carrageenan-induced edema)” value is recorded as “reduced”.
`COc1ccc(OC(=O)NC2CCCCC2)cc1-c1cccc(C(N)=O)c1` [Compound 1c]: the “entry into the brain after systemic administration” value (from here on “entry into the brain”) in data set [8] was “enter the brain”.
The same measure, in the same setting: the entry for `NC(=O)c1cccc(-c2cc(OC(=O)NC3CCCCC3)ccc2F)c1` [Compound 1e] is “enter the brain”.
The IC50 is the concentration at which inhibition is half-maximal. Low values mean inhibition by little substance, high ones a need for much substance. With `CNC(=O)c1cccc(-c2cc(O)cc(OC(=O)NC3CCCCC3)c2)c1` [Compound 2, [3-hydroxy-5-[3-(methylcarbamoyl)phenyl]phenyl]N-cyclohexylcarbamate], the inhibition at 1 mg/kg at FAAH [6] (setting [10]) was -1.7 ± 0.2%; at FAAH [6] (setting [11]), 69.1 ± 3.5%. The same compound showed an IC50 at FAAH [9] (Table 1, in vitro FAAH assay) of 0.0003 µM.
As for `Cc1ccc(OC(=O)NC2CCCCC2)cc1-c1cccc(C(N)=O)c1` [Compound 1d], in [8], the “entry into the brain” value is “enter the brain”.
As to `NC(=O)c1cccc(-c2cc(OC(=O)NC3CCCCC3)ccc2C(=O)O)c1` [ARN0715], the “FAAH inhibition in brain” value on FAAH [6] (Table 2 (Example 5), brain) is reported as −2.1 ± 0.5%. Besides, on FAAH [6] (Table 2 (Example 5), liver), the “FAAH inhibition in liver” value worked out at 86.3 ± 1.3%. On FAAH [9] (Table 2 (Example 5)), this compound came in with an IC50 of 2.1 µM.
For `NC(=O)c1cccc(-c2cc(OC(=O)NC3CCCCC3)ccc2N)c1` [Compound 1f], the “entry into the brain” value in data set [8] is “largely excluded”.
